Each compound was assayed against recombinant human SYK (GST-hSYK fusion protein) (Homo sapiens, UniProt P43405) (assay: biochemical). Settings: Syk IC50, HTRF, recombinant human GST-SYK.
Description: Homogeneous Time-Resolved Fluorescence (HTRF) Assay for the Recombinant Human SYK Enzyme:

| IC50 [nM] | SMILES |
| --- | --- |
| < 0.5 | Cc1cc(Nc2nccc([C@@H](C)F)n2)cc(-c2cnc([C@@]3(O)CC[C@H](C(=O)O)C(C)(C)C3)s2)c1 [(1S,4R)-4-{5-[3-({4-[(1R)-1-fluoroethyl]pyrimidin-2-yl}amino)-5-methylphenyl]-1,3-thiazol-2-yl}-4-hydroxy-2,2-dimethylcyclohexanecarboxylic acid] |
| < 0.5 | Cc1cc(Nc2nccc([C@H](C)F)n2)cc(-c2cnc([C@@]3(O)CC[C@H](C(=O)O)C(C)(C)C3)s2)c1 [(1S,4R)-4-{5-[3-({4-[(1S)-1-fluoroethyl]pyrimidin-2-yl}amino)-5-methylphenyl]-1,3-thiazol-2-yl}-4-hydroxy-2,2-dimethylcyclohexanecarboxylic acid] |

Same assay, conditions: rhSYK Activity (IC50), recombinant human GST-SYK 5 pM, ATP 25 μM, biotinylated substrate peptide 250 nM, HTRF, 10-dose titration

| IC50 [nM] | SMILES |
| --- | --- |
| < 100 | Cc1cc(Nc2nccc(C(F)(F)F)n2)cc(-c2cnc(C3(O)CC(C)(C)C(C(=O)O)CC3O)s2)c1 (stereo not drawn) [142(1), 1,4-Trans, 1,5-trans-4,5-dihydroxy-2,2-dimethyl-4-[5-(3-methyl-5-{[4-(trifluoromethyl)pyrimidin-2-yl]amino}phenyl)-1,3-thiazol-2-yl]cyclohexanecarboxylic acid] |
| < 100 | CO/C=C/c1ncc(-c2cc(C)cc(Nc3nccc(C(F)(F)F)n3)c2)s1 [153(A), N-(3-{2-[(E)-2-Methoxyethenyl]-1,3-thiazol-5-yl}-5-methylphenyl)-4-(trifluoromethyl)pyrimidin-2-amine] |
| < 100 | CO/C=C\c1ncc(-c2cc(C)cc(Nc3nccc(C(F)(F)F)n3)c2)s1 [153(B), N-(3-{2-[(Z)-2-Methoxyethenyl]-1,3-thiazol-5-yl}-5-methylphenyl)-4-(trifluoromethyl)pyrimidin-2-amine] |

| SMILES | IC50 [nM] |
| --- | --- |
| CCOP(=O)(OCC)[C@]1(O)CC[C@](O)(c2ncc(-c3cc(C)cc(Nc4nccc(C(F)(F)F)n4)c3)s2)CC1 [155(B), Diethyl{trans-1,4-dihydroxy-4-[5-(3-methyl-5-{[4-(trifluoromethyl)pyrimidin-2-yl]amino}phenyl)-1,3-thiazol-2-yl]cyclohexyl}phosphonate] | < 100 |

Same assay, conditions: rhSYK Activity, Table 10, Formula A

| IC50 [nM] | SMILES |
| --- | --- |
| < 100 | COc1ccnc(Nc2cc(C)cc(-c3cnc(C4(O)CCNC(=O)CC4)s3)c2)n1 (stereo not shown) [Example 10A-1] |
| < 100 | COCc1cc(Nc2nccc(C(F)(F)F)n2)cc(-c2cnc(C3(O)CCNC(=O)CC3)s2)c1 (stereo not shown) [Example 10A-4] |

Same assay, conditions: rhSYK Activity, Table 10, Formula B

| IC50 [nM] | SMILES |
| --- | --- |
| < 100 | Cc1cc(Nc2nccc(C(F)(F)F)n2)cc(-c2cnc(C3=CC(=O)NCC3)s2)c1 [Example 10B-1] |

Same assay, conditions: rhSYK Activity, Table 15

| IC50 [nM] | SMILES |
| --- | --- |
| < 100 | OC1(c2ncc(-c3cccc(Nc4nccc(C(F)(F)F)n4)c3)s2)CCCC1 [Example 15-2] |
| < 100 | Cc1cc(Nc2nccc(C(F)(F)F)n2)cc(-c2cnc(C(C)(O)C(F)(F)F)s2)c1 (stereo not shown) [Example 15-4] |
| < 100 | CC(O)c1ncc(-c2cccc(Nc3nccc(C(F)(F)F)n3)c2)s1 (stereo not shown) [Example 15-5, 1-[5-(3-{[4-(Trifluoromethyl)pyrimidin-2-yl]amino}phenyl)-1,3-thiazol-2-yl]ethanol] |

Same assay, conditions: rhSYK Activity, Table 21

| IC50 [nM] | SMILES |
| --- | --- |
| < 100 | FC(F)(F)c1ccnc(Nc2cccc(-c3cnc(C4CCCO4)s3)c2)n1 (stereo not shown) [Example 21-1] |
| < 100 | CN1CCOC(c2ncc(-c3cccc(Nc4nccc(C(F)(F)F)n4)c3)s2)C1 (stereo not shown) [Example 21-2] |
| < 100 | CS(=O)(=O)Cc1ncc(-c2cccc(Nc3nccc(C(F)(F)F)n3)c2)s1 [Example 21-3] |
| < 100 | Cn1cc(-c2ncc(-c3cccc(Nc4nccc(C(F)(F)F)n4)c3)s2)cn1 [Example 21-4] |
| < 100 | FC(F)(F)c1ccnc(Nc2cccc(-c3cnc(C4CCOC4)s3)c2)n1 (stereo not shown) [Example 21-5] |
| < 100 | FC(F)(F)c1ccnc(Nc2cccc(-c3cnc(CN4CCOCC4)s3)c2)n1 [Example 21-6] |
| 1000 to 10000 | FC(F)(F)c1ccnc(Nc2cccc(-c3cnc(C4CCc5ccccc54)s3)c2)n1 (stereo not shown) [Example 21-7] |
| 100 to 1000 | CCN(CC)CCC(C)(O)c1ncc(-c2cccc(Nc3nccc(C(F)(F)F)n3)c2)s1 (stereo not shown) [Example 21-8] |
| 100 to 1000 | FC1(F)CC(c2ncc(-c3cccc(Nc4nccc(C(F)(F)F)n4)c3)s2)C1 [Example 21-9] |
| < 100 | O=C1OCCN1Cc1ncc(-c2cccc(Nc3nccc(C(F)(F)F)n3)c2)s1 [Example 21-10] |
| 100 to 1000 | COC(=O)[C@H]1CC[C@H](c2ncc(-c3cccc(Nc4nccc(C(F)(F)F)n4)c3)s2)CC1 [Example 21-11, methyl trans-4-[5-(3-{[4-(trifluoromethyl)pyrimidin-2-yl]amino}phenyl)-1,3-thiazol-2-yl]cyclohexanecarboxylate] |
| < 100 | O=C(NCCO)[C@H]1CC[C@H](c2ncc(-c3cccc(Nc4nccc(C(F)(F)F)n4)c3)s2)CC1 [Example 21-12] |
| < 100 | O=C1CC(c2ncc(-c3cccc(Nc4nccc(C(F)(F)F)n4)c3)s2)CN1 (stereo not shown) [Example 21-14] |
| < 100 | FC(F)(F)c1ccnc(Nc2cccc(-c3cnc(C4COCCO4)s3)c2)n1 (stereo not shown) [Example 21-15] |
| < 100 | CN1CC(c2ncc(-c3cccc(Nc4nccc(C(F)(F)F)n4)c3)s2)CCC1=O (stereo not shown) [Example 21-17] |
| 100 to 1000 | CN1CCCCCC1c1ncc(-c2cccc(Nc3nccc(C(F)(F)F)n3)c2)s1 (stereo not shown) [Example 21-18] |

Same assay, conditions: rhSYK Activity, Table 27

| IC50 [nM] | SMILES |
| --- | --- |
| < 100 | OC(c1ncc(-c2cc(NCC(F)(F)F)cc(Nc3nccc(C(F)(F)F)n3)c2)s1)C(F)F (stereo not shown) [Example 27-1] |
| < 100 | CC(O)(c1ncc(-c2cc(NCC(F)(F)F)cc(Nc3nccc(C(F)(F)F)n3)c2)s1)C(F)(F)F (stereo not shown) [Example 27-2] |

Same assay, conditions: rhSYK Activity, Table 33-A

| IC50 [nM] | SMILES |
| --- | --- |
| < 100 | Cc1cc(Nc2ncc(F)cn2)cc(-c2cnc(C3(O)CCC(C)(C(=O)O)CC3)s2)c1 (stereo not shown) [Example 33A-3] |
| < 100 | Cc1cc(Nc2ncc(F)cn2)cc(-c2cnc([C@]3(O)CC[C@](C)(C(=O)O)CC3)s2)c1 [Example 33A-4] |
| < 100 | Cc1cc(Nc2nccc(C(F)(F)F)n2)cc(-c2cnc([C@]3(O)CC[C@H](C(=O)O)CC3)s2)c1 [Example 33A-8] |
| < 100 | Cc1cc(Nc2nccc(C(F)(F)F)n2)cc(-c2cnc(C3(O)CCC(C(=O)O)(c4ccccc4)CC3)s2)c1 (stereo not shown) [Example 33A-9] |
| 100 to 1000 | CCOC(=O)C1(C)CCC(O)(c2ncc(-c3cc(C)cc(Nc4nccc(C(F)(F)F)n4)c3)s2)CC1 (stereo not shown) [Example 33A-11] |
| < 100 | Cc1cc(Nc2nccc(C(F)(F)F)n2)cc(-c2cnc([C@]3(O)CC[C@](C)(C(=O)O)CC3)s2)c1 [Example 33A-12] |
| < 100 | Cc1cc(Nc2nccc(C(F)(F)F)n2)cc(-c2cnc(C3(O)CCC(C)(C(=O)O)CC3)s2)c1 (stereo not shown) [Example 33A-13] |
| < 100 | COC(=O)C1(NC(C)=O)CCC(O)(c2ncc(-c3cc(C)cc(Nc4nccc(C(F)(F)F)n4)c3)s2)CC1 (stereo not shown) [Example 33A-14] |
| < 100 | CC(=O)NC1(C(=O)O)CCC(O)(c2ncc(-c3cc(C)cc(Nc4nccc(C(F)(F)F)n4)c3)s2)CC1 (stereo not shown) [Example 33A-15] |
| < 100 | Cc1cc(Nc2nccc(C(F)(F)F)n2)cc(-c2cnc([C@]3(O)CC[C@H](CC(=O)O)CC3)s2)c1 [Example 33A-16] |
| < 100 | Cc1cc(Nc2nccc(C(F)(F)F)n2)cc(-c2cnc(C3(O)CCC(CCC(=O)O)CC3)s2)c1 (stereo not shown) [Example 33A-18] |
| < 100 | CCOC(=O)CCC1CCC(O)(c2ncc(-c3cc(C)cc(Nc4nccc(C(F)(F)F)n4)c3)s2)CC1 (stereo not shown) [Example 33A-21] |
| < 100 | O=C(O)[C@H]1CC[C@@](O)(c2ncc(-c3cc(Cl)cc(Nc4nccc(C(F)(F)F)n4)c3)s2)CC1 [Example 33A-22] |
| < 100 | O=C(O)[C@H]1CC[C@@](O)(c2ncc(-c3cccc(Nc4nccc(C(F)(F)F)n4)c3)s2)CC1 [Example 33A-23] |
| < 100 | O=C(O)[C@H]1CC[C@](O)(c2ncc(-c3cccc(Nc4nccc(C(F)(F)F)n4)c3)s2)CC1 [Example 33A-24] |

Same assay, conditions: rhSYK Activity, Table 116A

| IC50 [nM] | SMILES |
| --- | --- |
| < 100 | Cc1cc(Nc2nccc(C3CCC3)n2)cc(-c2cnc([C@@]3(O)CC[C@H](C(=O)O)C(C)(C)C3)s2)c1 [116A-31] |
| < 100 | Cc1cc(Nc2nccc(C(C)(C)C)n2)cc(-c2cnc(C3(O)CCC(C(=O)O)C(C)(C)C3)s2)c1 (stereo not shown) [116A-32] |
| < 100 | Cc1cc(Nc2nccc(OC(C)C)n2)cc(-c2cnc([C@@]3(O)CC[C@H](C(=O)O)C(C)(C)C3)s2)c1 [116A-33] |
| 100 to 1000 | COC(=O)C1CCC(O)(c2ncc(-c3cc(C)cc(Nc4ncc(Cl)c(C)n4)c3)s2)CC1(C)C (stereo not shown) [116A-34] |
| 100 to 1000 | COC(=O)C1CCC(O)(c2ncc(-c3cc(C)cc(Nc4ncc(F)c(OC)n4)c3)s2)CC1(C)C (stereo not shown) [116A-35] |
| < 100 | COc1nc(Nc2cc(C)cc(-c3cnc(C4(O)CCC(C(=O)O)C(C)(C)C4)s3)c2)ncc1Cl (stereo not shown) [116A-36] |
| 100 to 1000 | COC(=O)C1CCC(O)(c2ncc(-c3cc(C)cc(Nc4ncc(Cl)c(OC)n4)c3)s2)CC1(C)C (stereo not shown) [116A-38] |
| < 100 | Cc1cc(Nc2nccc([C@@H](C)F)n2)cc(-c2cnc([C@@]3(O)CC[C@H](C(=O)O)C(C)(C)C3)s2)c1 [116A-39] |
| < 100 | Cc1cc(Nc2nccc([C@H](C)F)n2)cc(-c2cnc([C@@]3(O)CC[C@H](C(=O)O)C(C)(C)C3)s2)c1 [116A-40] |

Same assay, conditions: rhSYK Activity, table of Examples 16-x

| IC50 [nM] | SMILES |
| --- | --- |
| < 100 | CCCC(=O)Nc1cc(Nc2nccc(C(F)(F)F)n2)cc(-c2cnc(C3(O)CCC3)s2)c1 [Example 16-1] |
| < 100 | O=C(Nc1cc(Nc2nccc(C(F)(F)F)n2)cc(-c2cnc(C3(O)CCC3)s2)c1)C1CC1 [Example 16-2] |

Same assay, conditions: rhSYK Activity, table of Examples 19-x

| IC50 [nM] | SMILES |
| --- | --- |
| < 100 | CCNC(=O)Nc1cc(Nc2nccc(C(F)(F)F)n2)cc(-c2cnc(C3(O)CCC3)s2)c1 [Example 19-1] |
| < 100 | NC(=O)Nc1cc(Nc2nccc(C(F)(F)F)n2)cc(-c2cnc(C3(O)CCC3)s2)c1 [Example 19-2] |
| < 100 | CNC(=O)Nc1cc(Nc2nccc(C(F)(F)F)n2)cc(-c2cnc(C3(O)CCC3)s2)c1 [Example 19-3] |
| < 100 | CC(C)NC(=O)Nc1cc(Nc2nccc(C(F)(F)F)n2)cc(-c2cnc(C3(O)CCC3)s2)c1 [Example 19-4] |
| < 100 | NC(=O)NC(=O)Nc1cc(Nc2nccc(C(F)(F)F)n2)cc(-c2cnc(C3(O)CCC3)s2)c1 [Example 19-5] |

Reference: patent US8551984B2, “Aminopyrimidines as SYK inhibitors” (Merck Sharp & Dohme Corp., priority 2009, dated 2013)
